ChEMBL document CHEMBL6087436, “The novel β-hairpin antimicrobial peptide D-G(RF)3 demonstrates exceptional antibacterial efficacy” (Eur J Med Chem, 2025)
Active and inactive are the calls of the source. No cut-off for these calls is given here. Where a SMILES comes first, the peptide text is derived from it. Bridges are numbered along the chain shown (N, C = ends). [ ]: non-standard residue; d: D form. The star is where a group is joined. X1 = CC[C@H](C)CCCCC(=O)*; dDab = NCC[C@@H](N)C(=O)O; Dab = NCC[C@H](N)C(=O)O

How the values were obtained:
[1] = system: Klebsiella pneumoniae; experiment: In vivo antibacterial activity against Klebsiella pneumoniae ATCC 700603 infected in male Balb/c mouse lung infection model assessed as reduction in serous exudation of alveolar cavities at 10 mg/kg, ip measured after 24 hrs by H and E staining based analysis; assay type: functional, organism-based
[2] = system: Escherichia coli; experiment: Inhibition of biofilm formation in Escherichia coli ATCC 25922 at 1 uM incubated for 24 hrs by crystal violet staining based analysis; assay type: functional, organism-based
[3] = system: Klebsiella pneumoniae; experiment: Inhibition of biofilm formation in Klebsiella pneumoniae ATCC 700603 at 1 uM incubated for 24 hrs by crystal violet staining based analysis; assay type: functional, organism-based
[4] = system: Escherichia coli; experiment: Inhibition of biofilm formation in Escherichia coli ATCC 25922 incubated for 24 hrs by crystal violet staining based analysis; assay type: functional, organism-based; settings: dose 1-32 µM
[5] = system: Escherichia coli; experiment: Antimicrobial activity against Escherichia coli at 2 times MIC in presence of LPS preincubated for 1 hr followed by bacterial addition and measured after 6 hrs by LPS competitive inhibition assay; assay type: functional, organism-based
[6] = system: Klebsiella pneumoniae; experiment: Inhibition of biofilm formation in Klebsiella pneumoniae ATCC 700603 incubated for 24 hrs by crystal violet staining based analysis; assay type: functional, organism-based; settings: dose 1-32 µM
[7] = system: Staphylococcus aureus; experiment: Inhibition of biofilm formation in Staphylococcus aureus ATCC 25923 incubated for 24 hrs by crystal violet staining based analysis; assay type: functional, organism-based; settings: dose 1-32 µM
[8] = system: Cell membrane; experiment: Induction of cell membrane permeability in Escherichia coli assessed as rough convex surface at 2 times MIC by SEM analysis; assay type: subcellular
[9] = system: Klebsiella pneumoniae; experiment: In vivo antibacterial activity against Klebsiella pneumoniae ATCC 700603 infected in male Balb/c mouse lung infection model assessed as reduction in alveoli expansion at 10 mg/kg, ip measured after 24 hrs by H and E staining based analysis; assay type: functional, organism-based
[10] = system: Escherichia coli; experiment: Inhibition of biofilm formation in Escherichia coli ATCC 25922 at >= 2 uM incubated for 24 hrs by crystal violet staining based analysis; assay type: functional, organism-based
[11] = system: Pseudomonas aeruginosa; experiment: Inhibition of biofilm formation in Pseudomonas aeruginosa ATCC 27853 incubated for 24 hrs by crystal violet staining based analysis; assay type: functional, organism-based; settings: dose 1-32 µM
[12] = system: Cell membrane; experiment: Induction of Outer membrane permeabilization in Escherichia coli at 8 uM by NPN-dye based fluorescence analysis; assay type: subcellular
[13] = system: Klebsiella pneumoniae; experiment: In vivo antibacterial activity against Klebsiella pneumoniae ATCC 700603 infected in male Balb/c mouse lung infection model assessed as reduction in crumpling alveoli at 10 mg/kg, ip measured after 24 hrs by H and E staining based analysis; assay type: functional, organism-based
[14] = system: Klebsiella pneumoniae; experiment: In vivo antibacterial activity against Klebsiella pneumoniae ATCC 700603 infected in male Balb/c mouse lung infection model assessed as increase on compensatory dilation at 5 mg/kg, ip and measured after 24 hrs; assay type: functional, organism-based
[15] = system: Klebsiella pneumoniae; experiment: Additive antibacterial activity against Klebsiella pneumoniae assessed as fractional inhibitory concentration index in presence of kanamycin incubated for 18 hrs by checkerboard method; assay type: functional
[16] = system: Escherichia coli; experiment: Synergistic antibacterial activity against Escherichia coli assessed as fractional inhibitory concentration index in presence of rifampin incubated for 18 hrs by checkerboard method; assay type: functional
[17] = system: Klebsiella pneumoniae; experiment: Bactericidal activity against Klebsiella pneumoniae ATCC 700603 assessed as bacterial eradication by measuring bacterial counts at 2 times MIC measured after 30 mins by Time killing assay relative to control; assay type: functional; settings: 0.5 h
[18] = system: Staphylococcus aureus; experiment: Antibacterial activity against Staphylococcus aureus ATCC 25923 assessed as fold change in activity in presence of 1 mM MgCl2; assay type: functional
[19] = system: Pseudomonas aeruginosa; experiment: Antibacterial activity against Pseudomonas aeruginosa ATCC 27853 assessed as inhibition of bacterial growth incubated for 18 hrs by microbroth dilution assay; assay type: functional
[20] = system: Pseudomonas aeruginosa; experiment: Synergistic antibacterial activity against Pseudomonas aeruginosa assessed as fractional inhibitory concentration index in presence of imipenem incubated for 18 hrs by checkerboard method; assay type: functional
[21] = system: Escherichia coli; experiment: Synergistic antibacterial activity against Escherichia coli assessed as fractional inhibitory concentration index in presence of kanamycin incubated for 18 hrs by checkerboard method; assay type: functional
[22] = system: Bacillus subtilis; experiment: Antibacterial activity against Bacillus subtilis ATCC 23857 assessed as inhibition of bacterial growth incubated for 18 hrs by microbroth dilution assay; assay type: functional
[23] = system: Staphylococcus aureus; experiment: Antibacterial activity against Staphylococcus aureus ATCC 25923 assessed as fold decrease in presence of 150 mM NaCl; assay type: functional
[24] = system: Pseudomonas aeruginosa; experiment: Synergistic antibacterial activity against Pseudomonas aeruginosa assessed as fractional inhibitory concentration index in presence of rifampin incubated for 18 hrs by checkerboard method; assay type: functional
[25] = system: Staphylococcus aureus; experiment: Additive antibacterial activity against Staphylococcus aureus assessed as fractional inhibitory concentration index in presence of ciprofloxacin incubated for 18 hrs by checkerboard method; assay type: functional
[26] = system: Klebsiella pneumoniae; experiment: In vivo antibacterial activity against Klebsiella pneumoniae ATCC 700603 infected in male Balb/c mouse lung infection model assessed as reduction in pulmonary bacterial load at 10 mg/kg, ip measured after 24 hrs (reference value: 3.05 x 10^9 CFU/g); assay type: functional
[27] = system: Klebsiella pneumoniae; experiment: In vivo antibacterial activity against Klebsiella pneumoniae ATCC 700603 infected in male Balb/c mouse lung infection model assessed as reduction in pulmonary bacterial load at 5 mg/kg, ip measured after 24 hrs (reference value: 3.05 x 10^9 CFU/g); assay type: functional
[28] = system: Pseudomonas aeruginosa; experiment: Induction of drug resistance in Pseudomonas aeruginosa ATCC 27853 assessed as fold increase in MIC incubated for 24 hrs and measured under 40 passages; assay type: functional
[29] = system: Klebsiella pneumoniae; experiment: Synergistic antibacterial activity against Klebsiella pneumoniae assessed as fractional inhibitory concentration index in presence of rifampin incubated for 18 hrs by checkerboard method; assay type: functional
[30] = system: Staphylococcus aureus; experiment: Antibacterial activity against Staphylococcus aureus ATCC 25923 assessed as inhibition of bacterial growth incubated for 18 hrs by microbroth dilution assay; assay type: functional
[31] = system: Klebsiella pneumoniae; experiment: Antibacterial activity against Klebsiella pneumoniae ATCC 700603 assessed as inhibition of bacterial growth incubated for 18 hrs by microbroth dilution assay; assay type: functional
[32] = system: Staphylococcus epidermidis; experiment: Antibacterial activity against Staphylococcus epidermidis ATCC 12228 assessed as inhibition of bacterial growth incubated for 18 hrs by microbroth dilution assay; assay type: functional
[33] = system: Staphylococcus aureus; experiment: Antibacterial activity against Staphylococcus aureus ATCC 25923 assessed as fold change in activity in presence of 2 mM CaCl2; assay type: functional
[34] = system: Escherichia coli; experiment: Antibacterial activity against Escherichia coli ATCC 25922 assessed as inhibition of bacterial growth incubated for 18 hrs by microbroth dilution assay; assay type: functional
[35] = system: Staphylococcus aureus; experiment: Synergistic antibacterial activity against Staphylococcus aureus assessed as fractional inhibitory concentration index in presence of bacitracin incubated for 18 hrs by checkerboard method; assay type: functional
[36] = system: Pseudomonas aeruginosa; experiment: Synergistic antibacterial activity against Pseudomonas aeruginosa assessed as fractional inhibitory concentration index in presence of polymyxin B incubated for 18 hrs by checkerboard method; assay type: functional
[37] = Acute toxicity in male balb/c mouse assessed as alveolar shrinkage in lung administered intraperitoneally by H and E staining based analysis; assay type: tissue-based; settings: in vivo, ip
[38] = Acute toxicity in male balb/c mouse assessed as respiratory depression by measuring tissue bleeding in lung administered intraperitoneally by H and E staining based analysis; settings: in vivo, ip
[39] = Acute toxicity in male balb/c mouse assessed as inflammatory cell infiltration in lung administered intraperitoneally by H and E staining based analysis; assay type: tissue-based; settings: in vivo, ip
[40] = Acute toxicity in IP dosed male balb/c mouse assessed as animal death; assay type: organism-based; settings: in vivo
[41] = Acute toxicity in male balb/c mouse assessed as lethal dose at ip administration; assay type: organism-based; settings: in vivo

CC(C)CCCCC(=O)N[C@@H](CCN)C(=O)N[C@H](C(=O)N[C@@H](CCN)C(=O)N[C@H]1CCNC(=O)[C@H]([C@@H](C)O)NC(=O)[C@H](CCN)NC(=O)[C@H](CCN)NC(=O)[C@H](CC(C)C)NC(=O)[C@@H](Cc2ccccc2)NC(=O)[C@@H](CCN)NC1=O)[C@@H](C)O.CC[C@H](C)CCCCC(=O)N[C@@H](CCN)C(=O)N[C@H](C(=O)N[C@@H](CCN)C(=O)N[C@H]1CCNC(=O)[C@H]([C@@H](C)O)NC(=O)[C@H](CCN)NC(=O)[C@H](CCN)NC(=O)[C@H](CC(C)C)NC(=O)[C@@H](Cc2ccccc2)NC(=O)[C@@H](CCN)NC1=O)[C@@H](C)O (X1-[Dab]T[Dab][Dab][dDab][dF]L[Dab][Dab]T; lactam 4-C)
Activity [1]: Active
inhibition [2]: Active
inhibition [3]: Active
inhibition [4]: Dose-dependent-effect
Activity [5]: inactive
inhibition [6]: Dose-dependent-effect
inhibition [7]: Dose-dependent-effect
Activity [8]: Active
Activity [9]: Active
inhibition [10]: Active
inhibition [11]: Dose-dependent-effect
Activity [12]: Active
Activity [13]: Active
Activity [14]: Active

CC(C)CCCCC(=O)N[C@@H](CCN)C(=O)N[C@H](C(=O)N[C@@H](CCN)C(=O)N[C@H]1CCNC(=O)[C@H]([C@@H](C)O)NC(=O)[C@H](CCN)NC(=O)[C@H](CCN)NC(=O)[C@H](CC(C)C)NC(=O)[C@@H](Cc2ccccc2)NC(=O)[C@H](CCN)NC1=O)[C@@H](C)O.CC[C@H](C)CCCCC(=O)N[C@@H](CCN)C(=O)N[C@H](C(=O)N[C@@H](CCN)C(=O)N[C@H]1CCNC(=O)[C@H]([C@@H](C)O)NC(=O)[C@H](CCN)NC(=O)[C@H](CCN)NC(=O)[C@H](CC(C)C)NC(=O)[C@@H](Cc2ccccc2)NC(=O)[C@H](CCN)NC1=O)[C@@H](C)O (X1-[Dab]T[Dab][Dab][Dab][dF]L[Dab][Dab]T; lactam 4-C) [listing 1 of 2 here]
fractional inhibitory concentration index (FICI) [15]: 0.563
fractional inhibitory concentration index (FICI) [16]: 0.313
Activity [17]: 100%
fold change (FC) [18]: -2
MIC [19]: 2 µM
fractional inhibitory concentration index (FICI) [20]: 0.313
fractional inhibitory concentration index (FICI) [21]: 0.313
MIC [22]: 4 µM
fold change (FC) [23]: -4
fractional inhibitory concentration index (FICI) [24]: 0.313
fractional inhibitory concentration index (FICI) [25]: 0.75
Activity [26]: 2.46 10^8CFU/g
Activity [27]: 1.48 10^8CFU/g
fold change (FC) [28]: 8
fractional inhibitory concentration index (FICI) [29]: 0.375
MIC [30]: 8 µM
MIC [31]: 2 µM
MIC [32]: 8 µM
fold change (FC) [33]: -2
MIC [34]: 2 µM
fractional inhibitory concentration index (FICI) [35]: 0.5
fractional inhibitory concentration index (FICI) [36]: 0.188

CC(C)CCCCC(=O)N[C@@H](CCN)C(=O)N[C@H](C(=O)N[C@@H](CCN)C(=O)N[C@H]1CCNC(=O)[C@H]([C@@H](C)O)NC(=O)[C@H](CCN)NC(=O)[C@H](CCN)NC(=O)[C@H](CC(C)C)NC(=O)[C@@H](Cc2ccccc2)NC(=O)[C@H](CCN)NC1=O)[C@@H](C)O.CC[C@H](C)CCCCC(=O)N[C@@H](CCN)C(=O)N[C@H](C(=O)N[C@@H](CCN)C(=O)N[C@H]1CCNC(=O)[C@H]([C@@H](C)O)NC(=O)[C@H](CCN)NC(=O)[C@H](CCN)NC(=O)[C@H](CC(C)C)NC(=O)[C@@H](Cc2ccccc2)NC(=O)[C@H](CCN)NC1=O)[C@@H](C)O (X1-[Dab]T[Dab][Dab][Dab][dF]L[Dab][Dab]T; lactam 4-C) [listing 2 of 2 here]
Activity [37]: Toxic
Activity [38]: Toxic
Activity [39]: Toxic
Activity [40]: Toxic
LD50 [41]: 17.9 mg/kg
